Peptide text beside a SMILES is read from it. * marks the point of attachment. Benzoyl(4-SO2NH2) = NS(=O)(=O)c1ccc(C(=O)*)cc1
Legend:
wild-type hCAII protein = wild-type hCAII protein (Homo sapiens, UniProt P00918); test: colorimetric IC50 assay of NTMs and NTM-AAEIR peptides; format: biochemical; conditions: for Fold Enhancement (NTM IC50) / Fold Enhancement (NTM-AAEIR IC50): relative to NTM M64; for Fold Enhancement (NTM-AAEIR IC50): NTM on AAEIR
Protocol: The colorimetric assay used 300 nM of wild-type carbonic anhydrase incubated in 45 μL of 50 mM MOPS (pH 7.5), 33 mM Na2SO4, and 1 mM EDTA aliquoted into a 96-well, clear, flat-bottom plate. To each column of the plate, a 1/10 dilution series from 1 mM to 0.1 nM of each NTM was added and incubated at 25° C. for 10 minutes to reach binding equilibrium. […] The initial rate of hydrolysis was observed over the first 60 seconds. The slopes versus the concentration of NTM were put into a non-linear regression equation to determine the IC50 of the NTM to the carbonic anhydrase.

[1] = molecular target: human carbonic anhydrase II (hCAII) (Homo sapiens, UniProt P00918); test: hCAII functional assay (pNP-OAc hydrolysis) with SABA-modified peptides; format: biochemical
Protocol: A functional assay for hCAII enzyme was set up. Carbonic anhydrase catalyzes the hydrolysis of 4-nitrophenyl acetate (4-NPA) to nitrophenol, which can be monitored by absorbance at 400 nm. The enzymatic carbonic anhydrase assay generally includes 0.2-1.0 μM enzyme and 10-500 μM 4-NPA in 20-200 μL in assay buffer. […] Metal chelating agents (EDTA or EGTA), salt (NaCl, sulfate), detergent (Tween or Triton), and organic additives (acetonitrile, DMSO) may be employed to facilitate enzyme stability and reagent solubility. For the assay, 1 μM human carbonic anhydrase II, 50 mM MOPS (pH 7.6), 33 mM disodium sulfate, and 1 mM EDTA. To generate NTM-modified peptides, azide-derivatized peptides (via azide-PEG-amine and carbodiimide coupling to C-terminus of peptide) were conjugated to DBCO-coupled beads. […] To evaluate P1 dependence of the binding reaction, multiple P1 residues has been tested.

[2] = molecular target: biotinylated peptides M64-P1-P2-ΔK-(PEG9)(PEG9)-K(Biotin); test: bio-layer interferometry (BLI) of engineered binders; format: binding; conditions: M64 peptide, 22° C.
Protocol: Bio-layer interferometry (BLI) is an optical analytical and label-free method to directly measure kinetics between two biomolecules. In this technology, one biomolecule is immobilized on a surface in the form of a small tip, this tip is then dipped in a microplate containing the second biomolecule of interest. White light is directed down the tip to the tip surface where the binding is measured as a shift in wavelength that is caused as a result of the interference between incident and reflected light. More specifically, there are two surfaces at the tip, a reference layer and the experiment layer, the latter is where the biomolecules immobilize and bind. As the distance between these two layers increases due to biomolecules binding and immobilizing, the shift between incident and reflected wavelengths increases as caused by the light waves interfering at the two layers. Therefore, the size and the number of biomolecules that bind onto the surface is proportional to the shift measured. This shift is plotted against time to give a sensogram from which kon, koff and ultimately KD can be calculated.
All binding experiments were carried out on an 8-channel Gator Prime (Gator Bio) instrument. To measure the affinity of each binder-peptide pair, biotinylated peptides were immobilized on Streptavidin coated biosensor tips (Gator Bio), which were dipped in six binder concentrations and two controls. All binding assays were performed at 22° C. in 96 well polypropylene plates (Gator Bio) and carried out in triplicates with a well volume of 200 uL. Streptavidin coated biosensors were hydrated in the baseline buffer for 10 mins before each assay. All binding experiments used biotinylated peptides with the following sequence construct, M64-P1-P2-ΔK-(PEG9)(PEG9)-K(Biotin) and all peptides were diluted in the baseline buffer. Binders having sequences set forth in SEQ ID NO: 75-SEQ ID NO: 82 were tested. The binders originated from three different metalloenzyme scaffolds and were engineered according to the methods disclosed in Examples 4-6. […] All binders were serially diluted using the baseline buffer either by 2- or 3-fold. Baseline buffer consisted of 50 mM MOPS pH 7.5, 33 mM NaSO4, 1 mM EDTA and 0.1% Tween-20. The following protocol was used for each binding assay under shaker speed of 1000 rpm, which generated the best quality binding with minimal sensor to sensor variation and baseline drift (Table 14).
Between each binding assay, if biosensors were used more than once, the following protocol was used to regenerate the biosensor for subsequent binding assays (Table 15). Regeneration buffer consisted of […] and 10 mM Glycine pH 2.0.
Analysis of binding curves. […] Binding curves were aligned to the association step and subtracted using the reference curve. Each set of processed curves were then fit locally and inspected. The residual plot, R2 and Chi2 were examined to be <0.1 nm, […] and <3 nm respectively. […] Next, the qualifying curves were filled globally and the kinetic parameters kobs, kon, koff and KD were calculated along with their errors. The errors were inspected to be less than […] of its calculated value. Finally, the theoretical shift at equilibrium from the qualifying curves were filled on a steady state plot, and the KD and Rmax (theoretical maximum binding capacity in nm) were calculated from that curve. The kinetic parameters of exemplary generated binders (having sequences set forth in SEQ ID NO: 75-SEQ ID NO: 82) with their respective targets (indicated as P1 residue of immobilized peptides) are shown in Table 16.

[3] = 1 μM hCAII, 500 μM pNP-OAc, 10 minutes at 37° C., pNP release over 180 s

## Nc1cc(S(N)(=O)=O)ccc1C(=O)O [2-NH2, 2-Amino-4-sulfamoylbenzoic acid]
wild-type hCAII protein
  Fold Enhancement (NTM IC50): 0.3

## C[C@H](NC(=O)c1ccc(S(N)(=O)=O)cc1)C(=O)N[C@@H](C)C(=O)N[C@@H](C)C(=O)N[C@@H](C)C(=O)N[C@@H](CCC(=O)O)C(N)=O [(SAB)AAAAE] ({Benzoyl(4-SO2NH2)}-AAAAE-NH2)
[1]; SABA-P1-P2 groups
  IC50: 48 nM

## C[C@H](NC(=O)c1ccc(S(N)(=O)=O)cc1)C(=O)N[C@@H](Cc1ccccc1)C(=O)N[C@@H](C)C(=O)N[C@@H](C)C(=O)N[C@@H](CCC(=O)O)C(N)=O [(SAB)AFAAE] ({Benzoyl(4-SO2NH2)}-AFAAE-NH2)
[1]; [3]
  IC50: 183 nM
[1]; SABA-P1-P2 groups
  IC50: 183 nM

## C[C@H](NC(=O)[C@H](C)NC(=O)[C@H](Cc1ccccc1)NC(=O)c1ccc(S(N)(=O)=O)cc1)C(=O)N[C@@H](C)C(=O)N[C@@H](CCC(=O)O)C(N)=O [(SAB)FAAAE] ({Benzoyl(4-SO2NH2)}-FAAAE-NH2)
[1]; [3]
  IC50: 45 nM
[1]; SABA-P1-P2 groups
  IC50: 45 nM

## NS(=O)(=O)c1ccc(C(=O)O)cn1 [M65, 6-Sulfamoylpyridine-3-carboxylic acid]
wild-type hCAII protein
  Fold Enhancement (NTM IC50): 2.2
  Fold Enhancement (NTM-AAEIR IC50): 0.3

## NS(=O)(=O)c1ccc(C(=O)O)nc1 [M66]
wild-type hCAII protein; free NTM, 300 nM wild-type carbonic anhydrase, 1 mM pNPA, 25° C.
  IC50: 992 nM
wild-type hCAII protein
  Fold Enhancement (NTM IC50): 0.5

## NS(=O)(=O)c1ccc(C(=O)O)c([N+](=O)[O-])c1 [M67, 2Nitro-4-sulfamoylbenzoic acid]
wild-type hCAII protein
  Fold Enhancement (NTM IC50): 3.8
  Fold Enhancement (NTM-AAEIR IC50): 2.0

## COc1cc(S(N)(=O)=O)ccc1C(=O)O [M73, 2-Methoxy-4-sulfarnoylbenzoic acid]
wild-type hCAII protein
  Fold Enhancement (NTM IC50): 0.0

## Cc1cc(S(N)(=O)=O)ccc1C(=O)O [M74, 2-methyl-4 sulfamoylbenzoic acid]
wild-type hCAII protein
  Fold Enhancement (NTM IC50): 0.2

## NS(=O)(=O)c1ccc(C(=O)O)c(F)c1 [M75, 2-Fluoro-4-sulfamoylbenzoic acid]
wild-type hCAII protein
  Fold Enhancement (NTM IC50): 2.1
  Fold Enhancement (NTM-AAEIR IC50): 2.2

## NS(=O)(=O)c1ccc(C(=O)O)c(Cl)c1 [M76, 2-Chloro-4-sulfamoylbenzoic acid]
wild-type hCAII protein
  Fold Enhancement (NTM IC50): 2.6
  Fold Enhancement (NTM-AAEIR IC50): 1.9

## NS(=O)(=O)c1ccc(C(=O)O)cc1F [M88, 3-Fluoro-4-sulfamoylbenzoic acid]
wild-type hCAII protein
  Fold Enhancement (NTM IC50): 4.3
  Fold Enhancement (NTM-AAEIR IC50): 1.6

B1: 75 (protein)
chain: EWGYASHNGPDHWHELFPNAKGENQSPIELHTKDIRHDPSLQPWSVSYDGGSAKTILNNGKTLGVVFDDTYDRSMLRGGPLPGPYRLREFHLHWGSSDDHGSEHTVDGVKYAAELHLLHWNPKYNTFKEALKQRDGLAVIGIFLKIGHENGEFQIFLDALDKIKTKGKEAPFTKFDPSSLFPASRDYWTYQGSMTIPPLMEAVVWLLLKEPMTVSSDQMAKLRSLLSSAENEPPVPLVSNWRPPQPINNRVVRASFK
modifications: Synthetic binder, S279_0004
[2]; P1 = T
  Kd: 488 nM
  koff: 0.0111 s⁻¹
  kon: 23300 M⁻¹ s⁻¹
[2]; P1 = V
  Kd: 20 nM
  koff: 0.000473 s⁻¹
  kon: 23700 M⁻¹ s⁻¹
